For data set [1], the target named is T1, Estrogen receptor beta (Homo sapiens, UniProt Q92731, C334S/C369S/C481S). Description: Binding affinity to recombinant human ERbeta LBD (259 to 498 residues) C334S/C369S/C481S triple mutant expressed in Escherichia coli BL21(DE3) using FAM-labelled compound after 1 hr by fluorescence polarization method.
For data set [2], the target named is T2, Estrogen receptor (Homo sapiens, UniProt P03372).
T2 sequence (P03372 whole entry): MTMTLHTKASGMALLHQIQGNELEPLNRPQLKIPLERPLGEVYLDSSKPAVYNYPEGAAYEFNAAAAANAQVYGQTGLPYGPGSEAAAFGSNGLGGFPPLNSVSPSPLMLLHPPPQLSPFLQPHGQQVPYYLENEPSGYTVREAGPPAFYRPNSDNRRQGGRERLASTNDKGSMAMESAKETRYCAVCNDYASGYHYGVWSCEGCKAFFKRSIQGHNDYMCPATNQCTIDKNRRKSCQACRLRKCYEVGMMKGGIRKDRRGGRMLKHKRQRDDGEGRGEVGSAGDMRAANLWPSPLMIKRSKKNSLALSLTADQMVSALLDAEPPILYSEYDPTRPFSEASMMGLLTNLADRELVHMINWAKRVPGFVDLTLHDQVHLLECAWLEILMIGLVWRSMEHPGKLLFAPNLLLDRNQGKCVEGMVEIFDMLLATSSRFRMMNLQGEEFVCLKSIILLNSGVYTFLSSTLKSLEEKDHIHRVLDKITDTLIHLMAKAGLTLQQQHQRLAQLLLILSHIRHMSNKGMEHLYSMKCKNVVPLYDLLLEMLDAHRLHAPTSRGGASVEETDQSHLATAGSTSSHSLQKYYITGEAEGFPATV
Briefly: Binding affinity to recombinant human ERalpha LBD (301 to 553 residues) expressed in Escherichia coli BL21(DE3) using FAM-labelled compound after 1 hr by fluorescence polarization method.

Data set [3] can be described thus: Half life in rabbit serum at 100 uM by RP-HPLC method. Type of data set: ADME, cell-free, Oryctolagus cuniculus.
Data set [4] concerns the target T2, Estrogen receptor. Briefly: Binding affinity to recombinant human ERalpha LBD (301 to 553 residues) expressed in Escherichia coli BL21(DE3) using FITC-labelled compound after 1 hr by fluorescence polarization method.
Data set [5] concerns the target T2, Estrogen receptor. Description: Binding affinity to recombinant N-terminal His6-tagged ERalpha LBD (unknown origin) (299 to 554 residues) by surface plasmon resonance method.
For data set [6], the target named is T2, Estrogen receptor. Description: (§1) Binding affinity to recombinant human ERalpha LBD (301 to 553 residues) expressed in Escherichia coli BL21(DE3) by surface plasmon resonance method.
Data set [7] has as its target T3, Estrogen receptor (Homo sapiens) (UniProt P03372).
T3 sequence (whole entry): T2 sequence (P03372 whole entry)
Described as §1.

In data set [8] the target is T1, Estrogen receptor beta. Description: (§2) Binding affinity to recombinant human ERbeta LBD (259 to 498 residues) C334S/C369S/C481S triple mutant expressed in Escherichia coli BL21(DE3) by surface plasmon resonance method.
For data set [9], the system named is Estrogen receptor beta (Homo sapiens), Q92731 [C334S,C369S,C481S]. Described as §2.
Estrogen receptor beta (Homo sapiens), Q92731 [C334S,C369S,C481S], sequence (Q92731 whole entry C334S/C369S/C481S, the tested form may be a part): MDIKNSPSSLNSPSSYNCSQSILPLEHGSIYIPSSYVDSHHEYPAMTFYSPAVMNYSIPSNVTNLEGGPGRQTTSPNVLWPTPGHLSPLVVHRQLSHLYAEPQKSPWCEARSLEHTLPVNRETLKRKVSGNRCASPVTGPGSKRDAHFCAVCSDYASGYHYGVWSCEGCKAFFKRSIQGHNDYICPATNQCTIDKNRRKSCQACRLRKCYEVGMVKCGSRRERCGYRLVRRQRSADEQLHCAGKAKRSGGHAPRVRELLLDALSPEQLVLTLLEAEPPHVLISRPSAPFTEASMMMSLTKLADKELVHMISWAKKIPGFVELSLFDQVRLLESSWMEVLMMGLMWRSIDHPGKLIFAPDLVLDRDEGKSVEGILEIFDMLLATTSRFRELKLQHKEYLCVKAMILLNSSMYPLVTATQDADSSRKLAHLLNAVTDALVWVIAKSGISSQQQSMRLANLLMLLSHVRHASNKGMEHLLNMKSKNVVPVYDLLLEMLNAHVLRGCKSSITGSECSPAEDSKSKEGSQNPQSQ
In data set [10] the target is T2, Estrogen receptor. Description: Displacement of FAM-LTERHKILHRLLQEGSPSD from ERalpha (unknown origin) (302 to 552 residues) expressed in Escherichia coli rosetta (DE3) after 1 hr by fluorescence polarization assay.
Data set [11] addresses Estrogen receptor beta (Homo sapiens, UniProt Q92731). Description: Displacement of FAM-LTERHKILHRLLQEGSPSD from ERbeta (unknown origin) (260 to 502 residues) expressed in Escherichia coli rosetta (DE3) after 1 hr by fluorescence polarization assay.
The target in data set [12] is T2, Estrogen receptor. Briefly: Displacement of THC-ketone from human ERalpha LBD (304 to 554 residues) expressed in Escherichia coli BL21(DE3) after 1 hr by fluorescence assay.

pKd, pKi: −log10 of the molar value. Starred links: 1 amine or outer side, 2 acyl side, 3 side chain; linkers in the order of their positions; H or OH if unused. Positions of bridges follow the written chain, without caps; N, C: chain ends. Non-standard residues stand in square brackets, D forms with d. Residues, ends and D or L forms follow the SMILES beside them. X1 = O=C([C@H](CCC/C=C/[*:3])N[*:1])[*:2]; S5 = C=CCCC[C@](C)(N)C(=O)O

Estrogen receptor beta (Homo sapiens, UniProt Q92731), sequence (Q92731 whole entry, the tested form may be a part): as the sequence (Q92731 whole entry C334S/C369S/C481S, the tested form may be a part) above, with S334C, S369C, S481C counted along it
T1 sequence (Q92731 whole entry C334S/C369S/C481S, the tested form may be a part): as the sequence (Q92731 whole entry C334S/C369S/C481S, the tested form may be a part) above

Turning to `CC[C@H](C)[C@@H]1NC(=O)[C@@H](NC(=O)[C@H](CCCNC(=N)N)NC(=O)[C@H](CCCCN)NC(=O)[C@@H](N)Cc2c[nH]c3ccccc23)CS/C=C/CCC[C@@H](C(=O)N[C@@H](CC(C)C)C(=O)N[C@@H](CC(C)C)C(=O)N[C@@H](CCC(N)=O)C(=O)N[C@@H](CCC(=O)O)C(N)=O)NC(=O)[C@H](CCCNC(=N)N)NC(=O)[C@H](CC(C)C)NC1=O` (H-WKRCILR[X1]LLQE-NH2; thioether 4-8), the negative-log Kd (pKd) in data set [1] was 6.75; in data set [2], 7.00. Moreover, in [3], the half-life at 100 µM is 18.2 h.
For `CC[C@H](C)[C@H](NC(=O)[C@H](Cc1ccc(O)cc1)NC(=O)[C@@H]1C[C@H](O)CN1C(=O)[C@H](C)NC(=O)[C@H](CC(C)C)NC(=O)CCCCCNC(=O)[C@H](CCC(N)=O)NC(=O)[C@H](CC(C)C)NC(=O)[C@H](CC(C)C)NC(=O)[C@H](CCCNC(=N)N)NC(=O)[C@@H]1CNC(=O)[C@@H](NC(=O)[C@@H](N)CCCNC(=N)N)CC(=O)N[C@@H]([C@@H](C)CC)C(=O)N[C@@H](CC(C)C)C(=O)N1)C(N)=O`, in data set [4], the pKd is 7.52.
Regarding `CC[C@H](C)[C@@H]1NC(=O)C[C@H](NC(=O)[C@@H](N)CCCNC(=N)N)C(=O)NC[C@@H](C(=O)N[C@@H](CCCNC(=N)N)C(=O)N[C@@H](CC(C)C)C(=O)N[C@@H](CC(C)C)C(=O)N[C@@H](CCC(N)=O)C(N)=O)NC(=O)[C@H](CC(C)C)NC1=O`, the pKd in data set [4] is 7.07.
Regarding `CC[C@H](C)[C@H](NC(=O)[C@H](CCCCN)NC(=O)[C@H](Cc1cnc[nH]1)NC(C)=O)C(=O)N[C@@H](CC(C)C)C(=O)N[C@@H](Cc1cnc[nH]1)C(=O)N[C@@H](CCCNC(=N)N)C(=O)N[C@@H](CC(C)C)C(=O)N[C@@H](CC(C)C)C(=O)N[C@@H](CCC(N)=O)C(=O)N[C@@H](CC(=O)O)C(=O)N[C@@H](CO)C(N)=O` (Ac-HKILHRLLQDS-NH2), the pKd was 5.59 in data set [5], 5.60 in data set [6] and 5.30 in data set [8]. Moreover, the Kdiss in data set [7] was 0.347 s⁻¹; in data set [9] it was 0.376 s⁻¹.
Take `CSCC[C@H](NC(=O)[C@H](CC(C)C)NC(=O)[C@H](CC(C)C)NC(=O)[C@@H]1CCCN1C(=O)[C@@H](N)Cc1cnc[nH]1)C(=O)N[C@@H](CCCNC(=N)N)C(=O)N[C@@H](CC(C)C)C(=O)N[C@@H](CC(C)C)C(=O)N[C@@H](CC(C)C)C(=O)N[C@@H](CO)C(=O)N1CCC[C@H]1C(N)=O` (H-HPLLMRLLLSP-NH2): the values for the pKi in [10] and in [11] were 6.73 and 7.60, respectively.
With `CSCC[C@H](NC(=O)[C@H](CC(C)C)NC(=O)[C@H](CC(C)C)NC(=O)[C@@H]1CCCN1C(=O)[C@@H](N)Cc1cnc[nH]1)C(=O)N[C@@H](CCCNC(=N)N)C(=O)N[C@@H](CC(C)C)C(=O)N[C@@H](CC(C)C)C(=O)N[C@@H](Cc1cnc[nH]1)C(=O)N[C@@H](Cc1cnc[nH]1)C(=O)N1CCC[C@H]1C(=O)N[C@@H](CO)C(N)=O` (H-HPLLMRLLHHPS-NH2), the results for the pKi in [10] and in data set [11] were 5.81 and 5.44, respectively.
`CC[C@H](C)[C@H](NC(=O)[C@H](CCCCN)NC(=O)[C@H](Cc1cnc[nH]1)NC(=O)[C@H](CCCNC(=N)N)NC(=O)[C@H](CCC(=O)O)NC(=O)[C@@H](NC(=O)[C@H](CC(C)C)NC(=O)[C@@H](N)CS)[C@@H](C)O)C(=O)N[C@@H](CC(C)C)C(=O)N[C@@H](Cc1cnc[nH]1)C(=O)N[C@@H](CCCNC(=N)N)C(=O)N[C@@H](CC(C)C)C(=O)N[C@@H](CC(C)C)C(=O)N[C@@H](CCC(N)=O)C(=O)N[C@@H](CCC(=O)O)C(N)=O` (H-CLTERHKILHRLLQE-NH2) showed a pKd in [12] of 6.05.
Consider `CC(=O)N[C@@H](CCCNC(=N)N)C(=O)N[C@@H](CCCNC(=N)N)C(=O)N[C@@H](CCCNC(=N)N)C(=O)N[C@@H](CCCNC(=N)N)C(=O)N[C@@H](CCCCN)C(=O)N[C@@]1(C)CCC/C=C\CCC[C@@](C)(C(=O)N[C@@H](CC(C)C)C(=O)N[C@@H](CCC(N)=O)C(=O)N[C@@H](CC(=O)O)C(=O)N[C@@H](CO)C(N)=O)NC(=O)[C@H](CCCNC(=N)N)NC(=O)[C@H](Cc2cnc[nH]2)NC(=O)[C@H](CC(C)C)NC1=O` (Ac-RRRRK[S5]LHR[S5]LQDS-NH2; staple (Z) 6-10), for which, in data set [5], the pKd was 7.72.

Values taken from ChEMBL document CHEMBL4229451, “Recent advances in peptidomimetics antagonists targeting estrogen receptor α-coactivator interaction in cancer therapy” (Bioorg Med Chem Lett, 2018).
